Reference: paper PMC8482815, “Targeting Host Glycolysis as a Strategy for Antimalarial Development” (Frontiers in Cellular and Infection Microbiology, 2021)
Values joined by “and” are separate entries in the source; they are usually repeats but may differ in a detail not shown here. Equal entries are not always repeated.

Tested on: human erythrocytes
Assay: Untargeted metabolomics and 13C-glucose tracing of enolase inhibitor treated erythrocytes
Type: cell-based
Settings: 0h
Method: Freshly collected erythrocytes were washed, resuspended to 10% hematocrit in buffer [25mM HEPES (pH 7.4), 120mM NaCl, 5.4mM KCl, 1.8mM CaCl2, and 1mM NaH2PO4], incubated for 1 hour at 37°C, then centrifuged at 2000xg for 5 minutes at 4°C, resuspended in fresh wash buffer to 30-40% hematocrit, and split into 210µL aliquots of packed erythrocytes. […] All samples were incubated at 37°C shaking at 500 RPM. Triplicate samples of supernatants and packed erythrocytes were collected at 0, 0.5, 1, and 6-hour intervals and snap-frozen in liquid N2.
RBC and media samples were extracted at 1:10 and 1:20 dilutions, respectively, in 5:3:2 MeOH : MeCN:H2O v/v/v, and supernatants analyzed on a Thermo Vanquish UHPLC coupled to a Thermo Q Exactive mass spectrometer, as extensively described ([Nemkov et al., 2015]; [Nemkov et al., 2017]). The extraction buffer was supplemented with 40uM 3-^13C lactate to allow absolute quantification of lactate isotopologues, including lactate generated via glycolysis ([1,2,3-^13C3] enriched) vs. the pentose phosphate pathway ([2,3-^13C2] enriched), as described ([Reisz et al., 2016]). Metabolite assignments, peak area integration and isotopologues distributions were determined using Maven (Princeton University) ([Nemkov et al., 2015]; [Nemkov et al., 2017]).
Data were auto-scaled and normalized to zero-hour time points. Metabolites were removed from the dataset if greater than 50% of the samples contained missing values or the relative standard deviation among replicates exceeded 25%. Additionally, data was filtered using the interquartile range to reduce near-constant values from the experiment by 5%.
A principal component analysis of preprocessed data was plotted with the 95% confidence interval minimum volume enclosing ellipsoid for each respective group (MetaboAnalyst, cluster, plotly). A two-way repeated measures analysis of variance (ANOVA) was performed with multiple comparisons corrected for using a false discovery rate p-value cutoff of 0.05. Metabolite-Pathway analysis was performed using the R package of MetaboAnalyst, as previously described ([Xia and Wishart, 2010]). Metabolite-Protein nodal analysis was performed using omicsnet.ca and as previously described ([Zhou and Xia, 2018]).

[1] = treated erythrocytes, one value per replicate sample, polarity +
[2] = treated erythrocytes, one value per replicate sample, polarity -
[3] = treated erythrocytes, replicate samples

SMILES: CC(C)(C)C(=O)OCOP(=O)(OCOC(=O)C(C)(C)C)C1CC(O)N(O)C1=O (stereo not shown) [POMSF]
- AMP level (metabolomics signal) (replicate samples): 1.48E+06 and 1.22E+06 and 1.21E+06
- ATP level (metabolomics signal) (replicate samples): 1.36E+04 and 1.16E+04 and 9.69E+03
- Adenine level (metabolomics signal) (replicate samples): 1.41E+05 and 1.42E+05 and 1.51E+05
- Cytosine level (metabolomics signal) (replicate samples): 4.50E+04 and 5.15E+04 and 1.27E+05
- L-alanine level (metabolomics signal) (replicate samples): 6.40E+06 and 7.71E+06 and 9.55E+06
- L-arginine level (metabolomics signal) (replicate samples): 1.10E+07 and 7.60E+06 and 2.77E+06
- L-asparagine level (metabolomics signal) (replicate samples): 1.89E+06 and 2.56E+06 and 2.42E+06
- L-aspartate level (metabolomics signal) (replicate samples): 1.71E+07 and 2.26E+07 and 2.06E+07
- L-cysteine level (metabolomics signal) (replicate samples): 7.54E+05 and 3.33E+05 and 7.35E+04
- L-glutamate level (metabolomics signal) (replicate samples): 1.88E+07 and 2.22E+07 and 2.32E+07
- L-glutamine level (metabolomics signal) (replicate samples): 2.62E+07 and 2.59E+07 and 2.28E+07
- L-histidine level (metabolomics signal) (replicate samples): 1.62E+06 and 1.23E+06 and 1.63E+06
- L-isoleucine level (metabolomics signal) (replicate samples): 3.04E+07 and 2.95E+07 and 2.26E+07
- L-leucine level (metabolomics signal) (replicate samples): 9.83E+07 and 1.22E+08 and 9.50E+07
- L-lysine level (metabolomics signal) (replicate samples): 3.76E+06 and 3.81E+06 and 3.28E+06
- L-methionine level (metabolomics signal) (replicate samples): 1.04E+07 and 1.29E+07 and 9.06E+06
- L-phenylalanine level (metabolomics signal) (replicate samples): 4.95E+06 and 5.41E+06 and 4.32E+06
- L-proline level (metabolomics signal) (replicate samples): 3.86E+07 and 3.62E+07 and 3.21E+07
- L-serine level (metabolomics signal) (replicate samples): 1.54E+06 and 1.82E+06 and 2.05E+06
- L-threonine level (metabolomics signal) (replicate samples): 2.66E+06 and 3.06E+06 and 2.69E+06
- L-tryptophan level (metabolomics signal) (replicate samples): 5.64E+06 and 3.84E+06 and 3.64E+06
- L-tyrosine level (metabolomics signal) (replicate samples): 1.11E+07 and 1.27E+07 and 8.94E+06
- L-valine level (metabolomics signal) (replicate samples): 9.15E+07 and 1.15E+08 and 1.39E+08
- dCMP level (metabolomics signal) (replicate samples): 3.07E+04 and 2.16E+04 and 2.21E+04
- dTMP level (metabolomics signal) (replicate samples): 1.28E+06 and 1.67E+06 and 9.76E+05
- glycine level (metabolomics signal) (replicate samples): 9.91E+05 and 9.30E+05 and 1.13E+06
- N-Acyl-D-aspartate (C06380) metabolite signal [1]: 2.50E+05 and 2.72E+05 (2×)
- Poly-gamma-D-glutamate (C05723) metabolite signal [1]: 1.72E+07 and 2.04E+07 and 1.59E+07
- D-Ribitol 5-phosphate (C01068) metabolite signal [2]: 2.00E+04 and 3.48E+04 and 2.09E+04
- D-glucono-1,5-lactone (C00198) metabolite signal [2]: 5.28E+05 and 7.59E+05 and 7.80E+05
- L-Noradrenaline (C00547) metabolite signal [2]: 2.74E+05 and 1.74E+05 and 9.62E+04
- Oxalosuccinate (C05379) metabolite signal [2]: 1.90E+05 and 1.88E+05 and 1.84E+05
- Pyridoxamine (C00534) metabolite signal [2]: 3.31E+04 and 3.01E+04 and 2.36E+04
- Thioredoxin disulfide (C00343) metabolite signal [2]: 8.00E+04 and 1.23E+05 and 3.03E+04
- 1-4-beta-D-Xylan (metabolite signal) [3]: 2.50E+05 and 2.94E+05 and 2.54E+05
- 2-Hydroxyglutarate/Citramalate (C02630) metabolite signal [3]: 2.14E+05 and 2.40E+05 and 2.04E+05
- 5-6-Dihydrothymine (C00906) metabolite signal [3]: 3.14E+05 and 3.41E+05 and 2.85E+05
- 5-10-Methenyltetrahydrofolate (metabolite signal) [3]: 2.33E+05 and 3.06E+05 and 3.71E+05
- 5-Hydroxyisourate (C11821) metabolite signal [3]: 2.99E+06 and 4.00E+06 and 4.10E+06
- 5-L-Glutamyl-taurine (metabolite signal) [3]: 1.28E+05 and 9.38E+04 and 1.74E+05
- 5-Oxoproline (metabolite signal) [3]: 1.06E+06 and 1.19E+06 and 1.05E+06
- (S)(+)-Allantoin (C02350) metabolite signal [3]: 3.96E+04 and 4.19E+04 and 4.78E+04
- Allantoate (C00499) metabolite signal [3]: 5.92E+05 and 4.20E+05 and 1.48E+05
- Ascorbate (metabolite signal) [3]: 1.27E+05 and 1.55E+05 and 1.07E+05
- CMP-N-acetylneuraminate (metabolite signal) [3]: 3.49E+04 and 6.40E+04 and 4.41E+04
- Carnosine (metabolite signal) [3]: 1.74E+05 and 2.21E+05 and 3.49E+05
- Citrate (C00158) metabolite signal [3]: 3.66E+04 and 3.31E+04 and 3.64E+04
- Creatine (metabolite signal) [3]: 2.22E+08 and 2.62E+08 and 3.28E+08
- Creatinine (metabolite signal) [3]: 3.21E+06 and 3.75E+06 and 4.22E+06
- Cys-Gly (metabolite signal) [3]: 2.17E+06 and 2.00E+06 and 1.46E+06
- D-Glucosamine (metabolite signal) [3]: 1.02E+05 and 8.07E+04 and 1.48E+05
- D-Glucose (C00031) metabolite signal [3]: 6.82E+06 and 7.47E+06 and 6.93E+06
- D-Ribose (C00121) metabolite signal [3]: 1.55E+05 and 2.41E+05 and 2.38E+05
- Dehydroascorbate (metabolite signal) [3]: 1.97E+04 and 1.24E+04 and 6.28E+03
- Dihydrofolate (metabolite signal) [3]: 2.52E+06 and 2.25E+06 and 7.96E+05
- Dimethylglycine (metabolite signal) [3]: 8.88E+05 and 1.01E+06 and 1.45E+06
- Diphosphate (C00013) metabolite signal [3]: 6.51E+03 and 2.62E+03 and 7.12E+02
- Fumarate (C00122) metabolite signal [3]: 1.66E+05 and 1.93E+05 and 1.68E+05
- Glutathione (C00051) metabolite signal [3]: 1.67E+08 and 1.41E+08 and 9.66E+07
- Glutathione disulfide (metabolite signal) [3]: 3.84E+05 and 6.78E+05 and 4.93E+05
- Hypoxanthine (C00262) metabolite signal [3]: 1.47E+05 and 1.29E+05 and 1.33E+05
- IMP (C00130) metabolite signal [3]: 7.71E+04 and 2.73E+04 and 2.17E+04
- Inosine (C00294) metabolite signal [3]: 9.47E+04 and 1.13E+05 and 1.20E+05
- L-Citrulline (metabolite signal) [3]: 1.15E+06 and 1.84E+06 and 2.36E+06
- L-Homoserine (metabolite signal) [3]: 2.11E+05 and 2.32E+05 and 1.47E+05
- Lactate (C01432) metabolite signal [3]: 7.24E+06 and 8.30E+06 and 8.24E+06
- Malate (C00149) metabolite signal [3]: 5.52E+05 and 5.73E+05 and 5.31E+05
- Mannitol (C00392) metabolite signal [3]: 8.67E+04 and 1.22E+05 and 1.45E+05
- N-Acetylneuraminate (metabolite signal) [3]: 2.28E+04 and 3.32E+04 and 3.78E+04
- N-Glycoloyl-neuraminate (metabolite signal) [3]: 2.22E+05 and 2.27E+05 and 1.72E+05
- NAD+ (C00003) metabolite signal [3]: 4.26E+04 and 2.68E+05 and 2.34E+05
- Nicotinamide (C00153) metabolite signal [3]: 1.57E+07 and 2.35E+07 and 2.66E+07
- Ornithine (metabolite signal) [3]: 2.19E+06 and 2.53E+06 and 2.49E+06
- Oxaloacetate (C00036) metabolite signal [3]: 6.97E+04 and 6.01E+04 and 4.98E+04
- Phosphoserine (metabolite signal) [3]: 4.87E+04 and 2.38E+05 and 2.25E+05
- Putrescine (metabolite signal) [3]: 4.73E+04 and 6.21E+04 and 7.27E+04
- Pyridoxal (C00250) metabolite signal [3]: 5.83E+04 and 4.46E+04 and 6.28E+04
- Pyruvate (C00022) metabolite signal [3]: 1.18E+06 and 1.33E+06 and 1.20E+06
- S-Glutathionyl-L-cysteine (metabolite signal) [3]: 1.80E+05 and 2.28E+05 and 9.16E+04
- Sedoheptulose 1-phosphate (C06222) metabolite signal [3]: 5.23E+04 and 6.25E+04 and 4.82E+04
- Spermidine (metabolite signal) [3]: 1.16E+07 and 9.80E+06 and 1.05E+07
- Spermine (metabolite signal) [3]: 9.70E+06 and 8.73E+06 and 7.99E+06
- Succinate (C00042) metabolite signal [3]: 9.79E+04 and 1.14E+05 and 1.10E+05
- Thymidine (C00214) metabolite signal [3]: 2.50E+04 and 1.31E+04 and 1.15E+04
- UDP (C00015) metabolite signal [3]: 6.45E+05 and 4.64E+05 and 1.60E+05
- UDP-N-acetyl-D-glucosamine (metabolite signal) [3]: 3.60E+04 and 3.50E+04 and 3.40E+04
- UDP-glucose (C00029) metabolite signal [3]: 1.12E+05 and 1.15E+05 and 9.19E+04
- Urate (C00366) metabolite signal [3]: 4.94E+04 and 4.14E+04 and 3.72E+04
- Xanthine (C00385) metabolite signal [3]: 2.85E+05 and 3.63E+05 and 3.38E+05
- alpha-D-Glucosamine 1-phosphate (metabolite signal) [3]: 1.10E+06 and 1.63E+06 and 3.07E+06
- alpha-D-Ribose 1-phosphate (C00620) metabolite signal [3]: 1.48E+05 and 1.44E+05 and 1.26E+05
- gamma-Glutamyl-gamma-aminobutyrate (metabolite signal) [3]: 8.69E+04 and 8.91E+04 and 1.07E+05
- gamma-L-Glutamyl-D-alanine (metabolite signal) [3]: 2.41E+04 and 3.08E+04 and 2.52E+04
- gamma-L-Glutamyl-L-cysteine (metabolite signal) [3]: 4.83E+04 and 5.61E+04 and 6.44E+03
